Results from patent publication US20090155784A1, “ASSESSMENT OF ASTHMA AND ALLERGEN-DEPENDENT GENE EXPRESSION” (Wyeth, priority 2007, published 2009).

Assays:
[1] = test system: PBMCs from asthma subjects; assay: HG-U133A transcriptional profiling of allergen-stimulated PBMCs of asthma subjects (AOS), with and without cPLA2 inhibitor, 6 days culture; clustering and Ingenuity pathway analysis; type: cell-based, human
Source text: PBMCs were stimulated in vitro with a cocktail containing 4 different allergens from house dust mite, ragweed and cat. Recombinant allergens, Der p1, Der f2, Fel d1 (Indoor Biotech, Charlottesville, Va.) and natural ragweed allergen (Allergy Lab, Seattle, Wash.) were selected and screened for endotoxin contamination (LAL Endotoxin Test, Catalog #HIT302, sensitivity, 0.0001 Eu/ml, Cell Sciences, Canton, Mass.). The sensitivity of the subjects was unknown but the allergens were chosen based on the estimate that 80% of allergic individuals are believed to react to one or more of these allergens. Culture medium contained RPMI-1640 (Sigma) with 10% heat inactivated FCS (Sigma St. Louis, Mo.) and 100 unit/mL Penicillin and […] Streptomycin and 0.292 mg/mL Glutamine (GIBCO RL Invitrogen, Carlsbad, Calif.). The final allergen cocktail concentrations in culture medium were: Der p1 and Der f2 (dust mite), 1 mg/ml; Fel d1 (cat), 1.25 mg/ml; ragweed, 125 mg/ml. The total level of endotoxin contamination in culture medium was 0.057 Eu/ml. The cPLA2 inhibitor 4-{3-[1-benzhydryl-5-chloro-2-(2-{[(2,6-dimethylbenzyl)sulfonyl]amino}ethyl)-1H-indol-3-yl]propyl}benzoic acid was used at a concentration of 0.3 μM/ml. Zileuton, a 5-lipoxygenase inhibitor, was added at a concentration of 5 μM. The inhibitory activity of both the cPLA2 inhibitor and Zileuton samples were verified in a human whole blood assay. After 6 days in culture approximately 200 μL of supernatant was removed using an 8-channel pipettor without disturbing the cell pellet and placed into a collection plate for cytokine ELISA assays. To the remaining cell pellet 100 μL of RLT lysis buffer containing 1% beta-mercaptoethanol was added and snap frozen for RNA purification.
RNA was purified using QIA shredders and Rneasy mini kits (Qiagen, Valencia, Calif.). PBMC pellets frozen in RLT lysis buffer containing 1% β-mercaptoethanol were thawed and processed for total RNA isolation using the QIA shredder and RNeasy mini kit. A phenol:chloroform extraction was then performed, and the RNA was repurified using the RNeasy mini kit reagents. Eluted RNA was quantified using a Spectramax96 well plate UV reader (Molecular Devices, Sunnyvale, Calif., USA) monitoring A260/280 OD values. The quality of each RNA sample was assessed by capillary electrophoresis alongside an RNA molecular weight ladder on the Agilent 2100 bioanalyzer (Agilent Technologies, Palo Alto, Calif., USA). RNA samples were assigned quality values of intact (distinct 18S and 28S bands); partially degraded (discernible 18S and 28S bands with presence of low molecular weight bands) or completely degraded (no discernible 18S and 28S bands).
Labeled targets for oligonucleotide arrays were prepared using a modification of the procedure described by Lockhart et al. (Lockhart (1996) Nat. Biotechnol. 14:1675-80). Labeled targets were hybridized to the HG-U133A Affymetrix GeneChip Array as described in the Affymetrix technical manual. Eleven biotinylated control transcripts ranging in abundance from 3 parts per million (ppm) to 100 ppm were spiked into each sample to function as a standard curve (Hill (2001) Genome Biol. 2:RESEARCH0055). GeneChip MAS 5.0 software was used to evaluate the hybridization intensity, compute the signal value for each probe set and make an absent/present call.
GeneChips were required to pass the pre-set quality control criteria that the RNA quality metric required a 5′:3′ ratio. Two asthma subjects were excluded from the study due to failure to meet the RNA quality metric and 2 GeneChips from the group treated with cPLA2a inhibitor were excluded for the same reason. The signal value for each probe set was converted into a frequency value representative of the number of transcripts present in 10^6 transcripts by reference to the standard curve (Hill (2001) Genome Biol. 2:RESEARCH0055). […]

[2] = test system: PBMCs from asthma subjects; assay: HG-U133A baseline gene expression in PBMCs of asthma subjects (AOS), cPLA2 inhibitor in the absence of allergen (no AG); type: cell-based, human
Source text: PBMCs were stimulated in vitro with a cocktail containing 4 different allergens from house dust mite, ragweed and cat. Recombinant allergens, Der p1, Der f2, Fel d1 (Indoor Biotech, Charlottesville, Va.) and natural ragweed allergen (Allergy Lab, Seattle, Wash.) were selected and screened for endotoxin contamination (LAL Endotoxin Test, Catalog #HIT302, sensitivity, 0.0001 Eu/ml, Cell Sciences, Canton, Mass.). The sensitivity of the subjects was unknown but the allergens were chosen based on the estimate that 80% of allergic individuals are believed to react to one or more of these allergens. Culture medium contained RPMI-1640 (Sigma) with 10% heat inactivated FCS (Sigma St. Louis, Mo.) and 100 unit/mL Penicillin and […] Streptomycin and 0.292 mg/mL Glutamine (GIBCO RL Invitrogen, Carlsbad, Calif.). The final allergen cocktail concentrations in culture medium were: Der p1 and Der f2 (dust mite), 1 mg/ml; Fel d1 (cat), 1.25 mg/ml; ragweed, 125 mg/ml. […]
RNA was purified using QIA shredders and Rneasy mini kits (Qiagen, Valencia, Calif.). […] Eluted RNA was quantified using a Spectramax96 well plate UV reader (Molecular Devices, Sunnyvale, Calif., USA) monitoring A260/280 OD values. The quality of each RNA sample was assessed by capillary electrophoresis alongside an RNA molecular weight ladder on the Agilent 2100 bioanalyzer (Agilent Technologies, Palo Alto, Calif., USA). […]

With `Cc1cccc(C)c1CS(=O)(=O)NCCc1c(CCCc2ccc(C(=O)O)cc2)c2cc(Cl)ccc2n1C(c1ccccc1)c1ccccc1` [cPLA2 inhibitor, 4-{3-[1-benzhydryl-5-chloro-2-(2-{[(2,6-dimethylbenzyl)sulfonyl]amino}ethyl)-1H-indol-3-yl]propyl}benzoic acid] the “all T cell responsive and cell cycle genes in the pathway (Network 1, FIG. 3A/3C)” value ([1]; allergen + inhibitor) was “significantly changed towards the levels in the healthy subject group”, the “allergen-induced increase in expression of T cell genes ZAP70, CD28, CD3D” value ([1]; allergen + inhibitor) was “abolished” and the “genes initially down regulated in asthma samples in the presence of allergen, such as sialoadhesin (SN), CD84, TIMP3” value ([1]; allergen + inhibitor) was “up-regulated in the presence of inhibition”. For the same compound, the “genes up-regulated in asthma samples in response to allergen, such as ZAP70, LCK, MCM2” value ([1]; allergen + inhibitor) was “reduced to the levels seen in the allergen treated healthy controls”, the “other immune related genes: CD28, CD3D, IL-21R, HMGB1” value ([1]; allergen + inhibitor) was “downregulated” and the “every single probe in Network 1 in the asthmatic population” value ([1]; allergen + inhibitor, FIG. 3C) was “altered level of expression”. The “asthma specific gene expression (167 allergen-asthma specific probesets) in the presence of the inhibitor” value ([1]; compared to the allergen treatment alone, 0.3 μM/ml) was “altered”, the “Fold Change AOS Allergen vs. cPLA2 inhibitor” value ([1]; gene C10ORF3, probeset 218542_at) was −1.255 and the “Fold Change AOS Allergen vs. cPLA2 inhibitor” value ([1]; gene CDC2, probeset 203213_at) was −1.163. The “Fold Change AOS Allergen vs. cPLA2 inhibitor” value ([1]; gene CHIT1, probeset 208168_s_at) was 2.803, the “Fold Change AOS Allergen vs. cPLA2 inhibitor” value ([1]; gene DAB2, probeset 201279_s_at) was 2.442 and the “Fold Change AOS Allergen vs. cPLA2 inhibitor” value ([1]; gene DAB2, probeset 210757_x_at) was 2.524. The “Fold Change AOS Allergen vs. cPLA2 inhibitor” value ([1]; gene DUSP4, probeset 204014_at) was −1.393, the “Fold Change AOS Allergen vs. cPLA2 inhibitor” value ([1]; gene DUSP4, probeset 204015_s_at) was −1.344 and the “Fold Change AOS Allergen vs. cPLA2 inhibitor” value ([1]; gene FABP3, probeset 205738_s_at) was 2.574. The “Fold Change AOS Allergen vs. cPLA2 inhibitor” value ([1]; gene FLJ23311, probeset 219990_at) was −1.362, the “Fold Change AOS Allergen vs. cPLA2 inhibitor” value ([1]; gene GM2A, probeset 33646_g_at) was 2.499 and the “Fold Change AOS Allergen vs. cPLA2 inhibitor” value ([1]; gene GM2A, probeset 209727_at) was 2.415. For the same compound, the “Fold Change AOS Allergen vs. cPLA2 inhibitor” value ([1]; gene HS3ST2, probeset 219697_at) was 4.363, the “Fold Change AOS Allergen vs. cPLA2 inhibitor” value ([1]; gene ME1, probeset 204059_s_at) was 2.986 and the “Fold Change AOS Allergen vs. cPLA2 inhibitor” value ([1]; gene MELK, probeset 204825_at) was −1.228. For the same compound, the “Fold Change AOS Allergen vs. cPLA2 inhibitor” value ([1]; gene OIP5, probeset 213599_at) was −1.141, the “Fold Change AOS Allergen vs. cPLA2 inhibitor” value ([1]; gene PAPSS2, probeset 203060_s_at) was 2.162 and the “Fold Change AOS Allergen vs. cPLA2 inhibitor” value ([1]; gene PLEKHB2, probeset 201411_s_at) was 2.51. The “Fold Change AOS Allergen vs. cPLA2 inhibitor” value ([1]; gene POLG, probeset 213007_at) was −1.163, the “Fold Change AOS Allergen vs. cPLA2 inhibitor” value ([1]; gene RACGAP1, probeset 222077_s_at) was −1.167 and the “Fold Change AOS Allergen vs. cPLA2 inhibitor” value ([1]; gene RUVBL1, probeset 201614_s_at) was −1.215. The “Fold Change AOS Allergen vs. cPLA2 inhibitor” value ([1]; gene SLC36A1, probeset 213119_at) was 2.385, the “Fold Change AOS Allergen vs. cPLA2 inhibitor” value ([1]; gene SLC38A6, probeset 214830_at) was 2.908 and the “Fold Change AOS Allergen vs. cPLA2 inhibitor” value ([1]; gene SLC39A14, probeset 212110_at) was −1.323. For the same compound, the “Fold Change AOS Allergen vs. cPLA2 inhibitor” value ([1]; gene SLCO2B1, probeset 203472_s_at) was 2.698, the “Fold Change AOS Allergen vs. cPLA2 inhibitor” value ([1]; gene SLCO2B1, probeset 203473_at) was 2.609 and the “Fold Change AOS Allergen vs. cPLA2 inhibitor” value ([1]; gene SMC2L1, probeset 204240_s_at) was −1.245. For the same compound, the “Fold Change AOS Allergen vs. cPLA2 inhibitor” value ([1]; gene SN, probeset 219519_s_at) was 4.378, the “Fold Change AOS Allergen vs. cPLA2 inhibitor” value ([1]; gene TRIP13, probeset 204033_at) was −1.358 and the “Fold Change AOS Allergen vs. cPLA2 inhibitor” value ([1]; gene UNK_AI859865, probeset 222036_s_at) was −1.203. The “Fold Change AOS Allergen vs. cPLA2 inhibitor” value ([1]; gene UNK_BE966236, probeset 201890_at) was −1.167 and the “effect on gene expression in the absence of allergen stimulation, asthmatic population” value [2] was “does not affect gene expression”.
